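Where inhibition never reached the appropriate level, the endpoint shown equals the highest concentration tested. Otherwise, values were interpolated linearly from a five-concentration, 48-hour dose response in 96-well plates. TGI: concentration producing complete growth inhibition.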
Assays:
Assay in all cases: NCI-60 cell line screen, 48 h
786-0 renal = system: 786-0 renal
A498 renal = system: A498 renal
A549 NSCLC = system: A549 NSCLC
ACHN renal = system: ACHN renal
CAKI-1 renal = system: CAKI-1 renal
CCRF-CEM leukemia = system: CCRF-CEM leukemia
COLO 205 colon = system: COLO 205 colon
DLD-1 colon = system: DLD-1 colon
DMS 114 small cell lung = system: DMS 114 small cell lung
DMS 273 small cell lung = system: DMS 273 small cell lung
EKVX NSCLC = system: EKVX NSCLC
HCC-2998 colon = system: HCC-2998 colon
HCT-116 colon = system: HCT-116 colon
HCT-15 colon = system: HCT-15 colon
HL-60(TB) leukemia = system: HL-60(TB) leukemia
HOP-18 NSCLC = system: HOP-18 NSCLC
HOP-62 NSCLC = system: HOP-62 NSCLC
HT29 colon = system: HT29 colon
IGROV1 ovarian = system: IGROV1 ovarian
K-562 leukemia = system: K-562 leukemia
KM12 colon = system: KM12 colon
KM20L2 colon = system: KM20L2 colon
LOX IMVI melanoma = system: LOX IMVI melanoma
LXFL 529 NSCLC = system: LXFL 529 NSCLC
M14 melanoma = system: M14 melanoma
M19-MEL melanoma = system: M19-MEL melanoma
MALME-3M melanoma = system: MALME-3M melanoma
MOLT-4 leukemia = system: MOLT-4 leukemia
NCI-H226 lung = system: NCI-H226 lung
NCI-H23 lung = system: NCI-H23 lung
NCI-H460 lung = system: NCI-H460 lung
NCI-H522 lung = system: NCI-H522 lung
OVCAR-3 ovarian = system: OVCAR-3 ovarian
OVCAR-4 ovarian = system: OVCAR-4 ovarian
OVCAR-5 ovarian = system: OVCAR-5 ovarian
OVCAR-8 ovarian = system: OVCAR-8 ovarian
RPMI-8226 leukemia = system: RPMI-8226 leukemia
RXF 393 renal = system: RXF 393 renal
RXF-631 renal = system: RXF-631 renal
SF-268 CNS = system: SF-268 CNS
SF-295 CNS = system: SF-295 CNS
SF-539 CNS = system: SF-539 CNS
SK-MEL-2 melanoma = system: SK-MEL-2 melanoma
SK-MEL-28 melanoma = system: SK-MEL-28 melanoma
SK-MEL-5 melanoma = system: SK-MEL-5 melanoma
SK-OV-3 ovarian = system: SK-OV-3 ovarian
SN12C renal = system: SN12C renal
SNB-19 CNS = system: SNB-19 CNS
SNB-75 CNS = system: SNB-75 CNS
SNB-78 CNS = system: SNB-78 CNS
SR leukemia = system: SR leukemia
SW-620 colon = system: SW-620 colon
TK-10 renal = system: TK-10 renal
U251 CNS = system: U251 CNS
UACC-257 melanoma = system: UACC-257 melanoma
UACC-62 melanoma = system: UACC-62 melanoma
UO-31 renal = system: UO-31 renal
XF 498 CNS = system: XF 498 CNS

Measured: TGI

CC(C)(C)N/N=C(\C(=O)Nc1nc(=S)[nH][nH]1)C1C(=O)Nc2ccccc2S1=O (stereo not drawn)
> 100 µM: all assays above
